Where two headings read alike, the source gives them in different places.
What was measured:
EHMT1 = target: T1, EHMT1 (Homo sapiens, UniProt Q9H9B1); test: EHMT1 enzyme assay on peptide substrate (EHMT1 PEP); assay type: biochemical
T1 sequence (Q9H9B1 1-1298): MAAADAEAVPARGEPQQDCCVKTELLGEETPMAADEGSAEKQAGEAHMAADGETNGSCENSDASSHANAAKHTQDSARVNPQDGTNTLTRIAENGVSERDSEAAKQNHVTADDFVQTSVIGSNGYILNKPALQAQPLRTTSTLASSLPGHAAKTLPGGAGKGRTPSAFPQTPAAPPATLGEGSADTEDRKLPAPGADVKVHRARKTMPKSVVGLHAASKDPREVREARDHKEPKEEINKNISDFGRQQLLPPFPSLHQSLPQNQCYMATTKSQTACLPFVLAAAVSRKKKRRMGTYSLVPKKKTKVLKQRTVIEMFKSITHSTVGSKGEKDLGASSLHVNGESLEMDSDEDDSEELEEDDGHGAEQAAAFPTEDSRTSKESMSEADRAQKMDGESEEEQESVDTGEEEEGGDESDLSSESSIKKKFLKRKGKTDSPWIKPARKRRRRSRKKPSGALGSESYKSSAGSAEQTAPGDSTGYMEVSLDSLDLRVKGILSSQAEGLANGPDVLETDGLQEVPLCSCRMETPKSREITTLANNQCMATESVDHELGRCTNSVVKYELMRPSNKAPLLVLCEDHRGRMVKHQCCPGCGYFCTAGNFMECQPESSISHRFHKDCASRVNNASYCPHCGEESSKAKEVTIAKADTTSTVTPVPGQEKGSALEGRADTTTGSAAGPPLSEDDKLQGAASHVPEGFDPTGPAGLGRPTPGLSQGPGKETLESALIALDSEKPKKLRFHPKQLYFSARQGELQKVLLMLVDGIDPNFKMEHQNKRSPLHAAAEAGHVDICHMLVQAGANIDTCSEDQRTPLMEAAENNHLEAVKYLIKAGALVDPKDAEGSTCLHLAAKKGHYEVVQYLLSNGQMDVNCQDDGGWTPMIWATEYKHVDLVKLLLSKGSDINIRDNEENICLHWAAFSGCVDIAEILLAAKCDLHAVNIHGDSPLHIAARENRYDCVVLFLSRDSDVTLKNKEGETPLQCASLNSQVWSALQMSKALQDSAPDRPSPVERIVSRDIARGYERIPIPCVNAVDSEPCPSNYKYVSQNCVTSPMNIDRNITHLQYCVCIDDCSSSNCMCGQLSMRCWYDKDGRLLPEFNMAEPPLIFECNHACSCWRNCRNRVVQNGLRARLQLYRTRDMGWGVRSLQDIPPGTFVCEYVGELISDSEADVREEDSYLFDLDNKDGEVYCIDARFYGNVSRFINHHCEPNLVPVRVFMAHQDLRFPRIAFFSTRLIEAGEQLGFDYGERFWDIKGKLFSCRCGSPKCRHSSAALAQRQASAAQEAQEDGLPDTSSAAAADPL

human EHMT2 913-1193 = target: T2, human EHMT2 913-1193 (Homo sapiens, UniProt Q96KQ7); test: EHMT2 enzyme assay on histone peptide substrate (EHMT2 PEP); assay type: biochemical
T2 construct: recombinant purified human EHMT2 913-1193, Viva; purchased Viva
T2 sequence (Q96KQ7 913-1193): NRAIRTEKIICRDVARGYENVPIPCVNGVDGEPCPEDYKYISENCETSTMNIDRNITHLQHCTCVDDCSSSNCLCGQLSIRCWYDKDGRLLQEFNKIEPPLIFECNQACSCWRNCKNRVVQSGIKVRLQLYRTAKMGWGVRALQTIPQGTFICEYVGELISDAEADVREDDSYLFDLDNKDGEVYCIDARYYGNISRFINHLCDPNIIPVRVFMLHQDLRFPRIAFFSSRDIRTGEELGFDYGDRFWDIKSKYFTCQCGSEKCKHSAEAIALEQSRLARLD
Experimental: Recombinant purified human EHMT2 913-1193 (55 μM) synthesized by Viva was used for all experiments. Biotinylated histone peptides were synthesized by Biopeptide and HPLC-purified to >95% purity. Streptavidin Flashplates and seals were purchased from PerkinElmer and 384 Well V-bottom Polypropylene Plates were from Greiner. ^3H-labeled S-adenosylmethionine (^3H-SAM) was obtained from American Radiolabeled Chemicals with a specific activity of 80 Ci/mmol. Unlabeled SAM and S-adenosylhomocysteine (SAH) were obtained from American Radiolabeled Chemicals and Sigma-Aldrich respectively. Flashplates were washed in a Biotek ELx-405 with 0.1% Tween. 384-well Flashplates and 96-well filter binding plates were read on a TopCount microplate reader (PerkinElmer). Compound serial dilutions were performed on a Freedom EVO (Tecan) and spotted into assay plates using a Thermo Scientific Matrix PlateMate (Thermo Scientific). Reagent cocktails were added by Multidrop Combi (Thermo Scientific).
General Procedure for EHMT2 Enzyme Assay on Histone Peptide Substrate.
10-point curves of test compounds were made on a Freedom EVO (Tecan) using serial 3-fold dilutions in DMSO, beginning at 2.5 mM (final top concentration of compound was 50 μM and the DMSO was 2%). A 1 μL aliquot of the inhibitor dilution series was spotted in a polypropylene 384-well V-bottom plate (Greiner) using a Thermo Scientific Matrix PlateMate (Thermo Scientific). […] Compounds were incubated for 30 minutes with 40 μL per well of 0.031 nM EHMT2 (recombinant purified human EHMT2 913-1193, Viva) in 1× assay buffer (20 mM Bicine [pH 7.5], 0.002% Tween 20, 0.005% Bovine Skin Gelatin and 1 mM TCEP). […] Reactions were incubated for 60 minutes at room temperature and quenched with 10 μL per well of 400 μM unlabeled SAM, then transferred to a 384-well streptavidin Flashplate (PerkinElmer) and washed in a Biotek ELx-405 well washer with 0.1% Tween after 60 minutes. 384-well Flashplates were read on a TopCount microplate reader (PerkinElmer).

[1] = Table II, read-out: EHMT1 PEP (IC50 μM)
[2] = Table II, read-out: EHMT2 PEP (IC50 μM)
[3] = Table III, read-out: EHMT1 PEP (IC50 μM)
[4] = Table III, read-out: EHMT2 PEP (IC50 μM)
[5] = Table VII, read-out: EHMT1 PEP IC50
[6] = Table VII, read-out: EHMT2 PEP IC50

Row | Structure (SMILES) | IC50 (EHMT1; [1]) [µM] | IC50 (human EHMT2 913-1193; [2]) [µM] | further results
1 | CC(=O)N1CCC(CNc2ccnc(Nc3cccc(NC(=O)c4cn(C5CC5)nn4)c3)n2)CC1 [Compound 123] | > 10 | > 10 | 
2 | COc1ccc(Nc2nccc(N3CCCC3)n2)cc1OCCCN1CCCC1 [Compound 124] | 1 to 10 | 1 to 10 | 
3 | COc1ccc(Nc2nccc(N3CCCCC3)n2)cc1OCCCN1CCCC1 [Compound 125] | 1 to 10 | 1 to 10 | 
4 | COc1ccc(Nc2ccnc(CNC3CCOCC3)n2)cc1OCCCN1CCCC1 [Compound 190] | 1 to 10 | 1 to 10 | 
5 | COc1ccc(Nc2ncc(NC(C)=O)cn2)cc1OCCCN1CCCC1 [Compound 194] | > 10 | > 10 | 
6 | COc1ccc(Nc2nccc(CCN3CCN(C(C)=O)CC3)n2)cc1OCCCN1CCCC1 [Compound 196] | > 10 | > 10 | 
7 | COc1ccc(Nc2cccc3nn(C)cc23)cc1OCCCN1CCCC1 [Compound 197] | > 10 | > 10 | 
8 | COc1ccc(Nc2ccc3ncn(C)c3c2)cc1OCCCN1CCCC1 [Compound 200] | > 10 | > 10 | 
9 | COc1ccc(Nc2cccn3ncnc23)cc1OCCCN1CCCC1 [Compound 201] | > 10 | > 10 | 
10 | COc1ccc(Nc2cc(C)nc3ncnn23)cc1OCCCN1CCCC1 [Compound 202] | > 10 | > 10 | 
11 | CNc1nc(Nc2ccc(OC)c(OCCCN3CCCC3)c2)ncc1Cl [Compound 211] | 1 to 10 | 1 to 10 | 
12 | CNc1ccnc(Nc2cccc(OCC(O)CN3CCCC3)c2)n1 (stereo not drawn) [Compound 212] | 1 to 10 | 1 to 10 | 
13 | COc1ccc(Nc2ncc(N)cn2)cc1OCCCN1CCCC1 [Compound 213] | > 10 | > 10 | 
14 | COc1ccc(Nc2nccc(NCC3COC3)n2)cc1OCCCN1CCCC1 [Compound 256, N^2-(4-methoxy-3-(3-(pyrrolidin-1-yl)propoxy)phenyl)-N^4-(oxetan-3-ylmethyl)pyrimidine-2,4-diamine] |  |  | IC50 (EHMT1; [3]): > 10 µM; IC50 (human EHMT2 913-1193; [4]): > 10 µM
15 | CNc1nc(Nc2ccc(OC)c(OCCCN3CCCC3)c2)nc2ccccc12 [Compound 263, N^2-(4-methoxy-3-(3-(pyrrolidin-1-yl)propoxy)phenyl)-N^4-methylquinazoline-2,4-diamine] |  |  | IC50 (EHMT1; [3]): < 0.1 µM; IC50 (human EHMT2 913-1193; [4]): < 0.1 µM
16 | CNc1ccnc(Nc2ccc(OC(F)(F)F)c(OCCCN3CCCC3)c2)n1 [Compound 315, N^4-methyl-N^2-(3-(3-(pyrrolidin-1-yl)propoxy)-4-(trifluoromethoxy)phenyl)pyrimidine-2,4-diamine] |  |  | IC50 (EHMT1; [3]): 1 to 10 µM; IC50 (human EHMT2 913-1193; [4]): 1 to 10 µM
17 | CCc1ccccc1NC(=O)Nc1ccc(Nc2nc(C)cc(N3CCCC3)n2)cc1 [Compound 1115] |  |  | IC50 (EHMT1; [5]): 1 to 10 µM; IC50 (human EHMT2 913-1193; [6]): 1 to 10 µM
18 | CCNc1nc(C)cc(Nc2ccc(NC(=O)Nc3ccc(F)cc3)cc2)n1 [Compound 1116] |  |  | IC50 (EHMT1; [5]): > 10 µM; IC50 (human EHMT2 913-1193; [6]): 1 to 10 µM
19 | Cc1cc(N(C)C)nc(Nc2ccc(NC(=O)Nc3ccc(Cl)cc3)cc2)n1 [Compound 1117] |  |  | IC50 (EHMT1; [5]): > 10 µM; IC50 (human EHMT2 913-1193; [6]): 1 to 10 µM
20 | CCNc1nc(C)cc(Nc2ccc(NC(=O)Nc3ccc(C)c(C)c3)cc2)n1 [Compound 1118] |  |  | IC50 (EHMT1; [5]): > 10 µM; IC50 (human EHMT2 913-1193; [6]): 1 to 10 µM
21 | Cc1ccc(NC(=O)Nc2ccc(Nc3nc(C)cc(N4CCCC4)n3)cc2)cc1 [Compound 1119] |  |  | IC50 (EHMT1; [5]): 1 to 10 µM; IC50 (human EHMT2 913-1193; [6]): 1 to 10 µM

From patent US20210198277A1, “AMINE-SUBSTITUTED ARYL OR HETEROARYL COMPOUNDS” (Epizyme, Inc., priority 2016, published 2021)
